In PMC11578313, “Miniaturized Modular Click Chemistry‐enabled Rapid Discovery of Unique SARS‐CoV‐2 M^pro Inhibitors With Robust Potency and Drug‐like Profile” (Advanced Science, 2024):
Several values for one entry are separate records, joined by “and”; a condition that tells them apart may be missing. Equal values may be shown once.

Assay: In vivo pharmacokinetic study in male ICR mice (compound alone)
Details: for Plasma concentration (Calculated Concentration): mouse plasma
Description: The pharmacokinetics profile of the newly developed antiviral compound C5N17B was subsequently evaluated in male ICR mice that were free from specific pathogens, aiming to assess its potential for therapeutic application in vivo.
A total of six male ICR mice were randomly assigned to two groups. One group received the test drug intravenously at a dosage of 2 mg kg^−1, while the other group received oral administration at a dosage of 10 mg kg^−1. To prepare solutions of C5N17B, 2.39 mg compound was dissolved in a mixture of 0.119 mL DMSO, 0.238 mL polyoxyl 15 hydroxystearate (Solutol), and 2.027 mL normal saline. For the intravenous group, blood samples were collected from the sinus jugular into heparinized centrifugation tubes at various time points after dosing: 5, 15, 30 min, 1, 2, 4, 6, 8, and 24 h. As for the oral administration group, blood samples were collected at similar time points (0.05 mL of blood each time). The collected blood samples were then centrifuged at a speed of 4000 rpm for 10 min to separate plasma, which was subsequently stored at −20 °C until further LC‐MS analysis to determine the concentration of C5N17B. Briefly, the analysis involved adding 20 µL of plasma, sample calibration standard, quality control, and dilution quality control, and blank samples into respective wells on a 96‐well plate. Then each sample was quenched with 200 µL of internal standard (the blank sample was quenched with 200 µL of ACN: MeOH = 1:1), followed by vortex‐mixed for 5 min, and centrifuged for 0.5 min at 4000 rpm, 4 °C. Next, a 100 µL portion of supernatant was transferred to another clean 96‐well plate and diluted with 100 µL of water, vortex‐mixed for 5 min and centrifuged for 10 min at 4000 rpm, 4 °C, then the sample was injected for LC‐MS/MS analysis. All samples were quantified using an LC‐MS/MS‐AR Triple Quad 5500+ (SCIEX, USA) and the ExionLC liquid phase system. The mobile phase was 0.1% formic acid‐water/ACN with gradient elute at a flow rate of 0.8 mL mi^−1n (total time 2.20 min), and the detection wavelength was 225 nm. All blood samples were centrifuged using an Eppendorf 5424R centrifuge and quantified using an LC‐MS/MS‐AR Triple Quad 5500+ (SCIEX, USA). The pharmacokinetic parameters were calculated by WinNolin 8.2 software.

[1] = IV 2 mg/kg, individual mice 1#-3#, 2 mg/kg
[2] = IV 2 mg/kg, individual mice 1-3, 2 mg/kg
[3] = PO 10 mg/kg, individual mice 4#-6#, 10 mg/kg
[4] = PO 10 mg/kg, individual mice 4-6, 10 mg/kg

For Cc1cncc(C(=O)N2C[C@H]3CC[C@@H](C2)N3[C@H](c2cccc(F)c2)c2cn(CCc3ccsc3)nn2)c1 [Compound C5N17B], the “Plasma concentration (Calculated Concentration)” value (IV 2 mg/kg, 5 min (5 min), individual mice 1#-3#, 2 mg/kg) was 185 ng/mL and 233 ng/mL, the “Plasma concentration (Calculated Concentration)” value (IV 2 mg/kg, 0.5 h (30 min), individual mice 1#-3#, 2 mg/kg) was 10.2 ng/mL and 16.1 ng/mL and the plasma concentration (IV 2 mg/kg, 1 h, individual mice) was “BQL”. The “Plasma concentration (Calculated Concentration)” value (IV 2 mg/kg, 1 h, individual mice 1#-3#, 2 mg/kg) was “BQL (3×) and No Peak”, the plasma concentration (IV 2 mg/kg, 2 h, individual mice) was “BQL” and the “Plasma concentration (Calculated Concentration)” value (IV 2 mg/kg, 2 h, individual mice 1#-3#, 2 mg/kg) was “BQL (3×) and No Peak”. The plasma concentration (IV 2 mg/kg, 4 h, individual mice) was “BQL”, the “Plasma concentration (Calculated Concentration)” value (IV 2 mg/kg, 4 h, individual mice 1#-3#, 2 mg/kg) was “BQL (3×) and No Peak” and the plasma concentration (IV 2 mg/kg, 6 h, individual mice) was “BQL”. The “Plasma concentration (Calculated Concentration)” value (IV 2 mg/kg, 6 h, individual mice 1#-3#, 2 mg/kg) was “BQL (3×) and No Peak”, the plasma concentration (IV 2 mg/kg, 8 h, individual mice) was “BQL” and the “Plasma concentration (Calculated Concentration)” value (IV 2 mg/kg, 8 h, individual mice 1#-3#, 2 mg/kg) was “BQL (3×) and No Peak”. For the same compound, the plasma concentration (IV 2 mg/kg, 24 h, individual mice) was “BQL”, the “Plasma concentration (Calculated Concentration)” value (IV 2 mg/kg, 24 h, individual mice 1#-3#, 2 mg/kg) was “BQL (3×) and No Peak” and the “AUC0-∞” value [1] was 51.4 ng·h/mL and 65.2 ng·h/mL. For the same compound, the AUC(0-t) [1] was 49.9 ng·h/mL and 62.6 ng·h/mL, the C0 [1] was 342 ng/mL and 528 ng/mL and the Cl [1] was 648.77 mL/min/kg and 511.58 mL/min/kg. For the same compound, the Cmax [1] was 185 ng/mL and 233 ng/mL, the MRT0-t [1] was 6.48 min and 5.56 min and the “MRT0-∞” value [1] was 7.38 min and 6.9 min. For the same compound, the T1/2 [1] was 6 min and 6.66 min, the Vz [1] was 5.616 L/kg and 4.924 L/kg and the Tlast (IV 2 mg/kg, individual mice 1-3) was 0.5 h. For the same compound, the AUCINF_obs [2] was 51.379 ng·h/mL and 65.1568 ng·h/mL, the AUCINF_pred [2] was 51.3513 ng·h/mL and 64.7977 ng·h/mL and the AUC_%Back_Ext_obs [2] was 49.436% and 42.7448% and 48.6559%. The AUC_%Back_Ext_pred [2] was 49.6744% and 42.7678% and 48.9255%, the AUC_%Extrap_obs [2] was 3.513% and 2.864% and 3.964% and the AUC_%Extrap_pred [2] was 3.048% and 2.812% and 3.432%. For the same compound, the AUCall [2] was 49.9075 ng·h/mL and 62.5739 ng·h/mL, the AUClast [2] was 49.9075 ng·h/mL and 62.5739 ng·h/mL and the AUMCINF_obs [2] was 8.9367 h*h*ng/mL and 6.325 h*h*ng/mL and 7.498 h*h*ng/mL. For the same compound, the AUMCINF_pred [2] was 8.682 h*h*ng/mL and 6.307 h*h*ng/mL and 7.2606 h*h*ng/mL, the AUMC_%Extrap_obs [2] was 20.8781% and 14.9894% and 22.7511% and the AUMC_%Extrap_pred [2] was 18.5552% and 14.7494% and 20.228%. The AUMClast [2] was 7.071 h*h*ng/mL and 5.377 h*h*ng/mL and 5.792 h*h*ng/mL, the C0 [2] was 342.295 ng/mL and 528.167 ng/mL and the Cl_obs [2] was 648.773 mL/min/kg and 511.587 mL/min/kg. The Cl_pred [2] was 412.98 mL/min/kg and 649.123 mL/min/kg and 514.422 mL/min/kg, the Clast [2] was 10.2 ng/mL and 16.1 ng/mL and the Clast_pred [2] was 15.8864 ng/mL and 10.0084 ng/mL and 13.8618 ng/mL. The Cmax [2] was 185 ng/mL and 233 ng/mL, the Cmax_D [2] was 146 kg·ng/mL/mg and 92.5 kg·ng/mL/mg and 116.5 kg·ng/mL/mg and the HL_Lambda_z [2] was 0.1073 h and 0.09999 h and 0.1112 h. For the same compound, the Lambda_z [2] was 6.932 h⁻¹ and 6.233 h⁻¹, the MRTINF_obs [2] was 7.386 min and 6.906 min and the MRTINF_pred [2] was 7.368 min and 6.72 min. The MRTlast [2] was 6.462 min and 5.554 min, the Vss_obs [2] was 2.71724 L/kg and 4.7917 L/kg and 3.53216 L/kg and the Vss_pred [2] was 2.66526 L/kg and 4.78335 L/kg and 3.45846 L/kg. For the same compound, the Vz_obs [2] was 3.81856 L/kg and 5.61561 L/kg and 4.92437 L/kg, the Vz_pred [2] was 3.83697 L/kg and 5.61863 L/kg and 4.95166 L/kg and the “C0, Mean” value (IV 2 mg/kg, mean of mice 1#-3#) was 514 ng/mL. The “Plasma concentration (Calculated Concentration)” value (PO 10 mg/kg (10MPK), 5 min (5 min), individual mice 4#-6#) was 23.7 ng/mL and 30.0 ng/mL and 68.2 ng/mL and 30 ng/mL, the “Plasma concentration (Calculated Concentration)” value (PO 10 mg/kg (10MPK), 15 min, individual mice 4-6) was 15.3 ng/mL and 19.3 ng/mL and the “Plasma concentration (Calculated Concentration)” value (PO 10 mg/kg (10MPK), 30 min, individual mice 4-6) was 8.4 ng/mL and 4.44 ng/mL and 12 ng/mL. The “Plasma concentration (Calculated Concentration)” value (PO 10 mg/kg (10MPK), 1 hr, individual mice 4-6) was 6.32 ng/mL and 10.4 ng/mL and 4.89 ng/mL, the “Plasma concentration (Calculated Concentration), re-analysis” value (PO 10 mg/kg (10MPK), 1 hr, samples marked "re", individual mice) was 5.19 ng/mL and the “Plasma concentration (Calculated Concentration)” value (PO 10 mg/kg (10MPK), 2 hr, individual mice 4-6) was 6.1 ng/mL and 8.71 ng/mL and 16.7 ng/mL. For the same compound, the “Plasma concentration (Calculated Concentration)” value (PO 10 mg/kg (10MPK), 4 hr, individual mice 4-6) was 4.35 ng/mL and 7.74 ng/mL, the “Plasma concentration (Calculated Concentration)” value (PO 10 mg/kg (10MPK), 6 hr, individual mice 4-6) was “No Peak” and the “Plasma concentration (Calculated Concentration)” value (PO 10 mg/kg (10MPK), 8 hr, individual mice 4-6) was “No Peak”. For the same compound, the “Plasma concentration (Calculated Concentration)” value (PO 10 mg/kg (10MPK), 24 hr, individual mice 4-6) was “No Peak”, the T1/2 (PO 10 mg/kg (10MPK), individual mice 4#-6#) was 208 min and 142 min and 290 min and the plasma concentration (PO 10 mg/kg, 0.5 h, individual mice 4#-6#, 10 mg/kg) was 8.4 ng/mL and 12 ng/mL. For the same compound, the plasma concentration (PO 10 mg/kg, 2 h, individual mice 4#-6#, 10 mg/kg) was 6.1 ng/mL, the plasma concentration (PO 10 mg/kg, 6 h, individual mice 4#-6#, 10 mg/kg) was “BQL” and the plasma concentration (PO 10 mg/kg, 8 h, individual mice 4#-6#) was “BQL”. For the same compound, the plasma concentration (PO 10 mg/kg, 24 h, individual mice 4#-6#) was “BQL”, the “AUC0-∞” value [3] was 54.0 ng·h/mL and 102 ng·h/mL and the AUC(0-t) [3] was 45.5 ng·h/mL and 47.9 ng·h/mL. For the same compound, the Cmax [3] was 30.0 ng/mL and 68.2 ng/mL and 23.7 ng/mL, the F [3] was 14.30% and 15.08% and the MRT0-t [3] was 114 min and 110 min. For the same compound, the “MRT0-∞” value [3] was 314 min and 185 min and 401 min, the Tlag (PO 10 mg/kg, individual mice 4-6) was 0 h and the Cmax (PO 10 mg/kg, individual mice 4-6, full-precision output, 10 mg/kg) was 30 ng/mL and 68.2 ng/mL and 23.7 ng/mL. For the same compound, the AUCINF_obs [4] was 54.0464 ng·h/mL and 102.004 ng·h/mL, the AUCINF_pred [4] was 53.9915 ng·h/mL and 94.7713 ng·h/mL and the AUC_%Extrap_obs [4] was 48.9815% and 15.8821% and 53.0006%. The AUC_%Extrap_pred [4] was 44.7444% and 15.7964% and 49.4138%, the AUCall [4] was 45.4628 ng·h/mL and 47.9412 ng·h/mL and the AUClast [4] was 45.4628 ng·h/mL and 47.9412 ng·h/mL. For the same compound, the AUMCINF_obs [4] was 311.492 h*h*ng/mL and 166.93 h*h*ng/mL and 682.098 h*h*ng/mL, the AUMCINF_pred [4] was 270.44 h*h*ng/mL and 166.412 h*h*ng/mL and 602.65 h*h*ng/mL and the AUMC_%Extrap_obs [4] was 84.1842% and 48.3677% and 87.065%. The AUMC_%Extrap_pred [4] was 81.7834% and 48.2072% and 85.3597%, the AUMClast [4] was 49.2649 h*h*ng/mL and 86.1896 h*h*ng/mL and 88.2296 h*h*ng/mL and the Cl_F_obs [4] was 3083.77 mL/min/kg and 1633.93 mL/min/kg. For the same compound, the Cl_F_pred [4] was 3030.33 mL/min/kg and 3086.92 mL/min/kg and 1758.62 mL/min/kg, the Clast [4] was 5.85 ng/mL and 2.52 ng/mL and 7.74 ng/mL and the Clast_pred [4] was 4.934 ng/mL and 2.504 ng/mL and 6.705 ng/mL. For the same compound, the Cmax_D [4] was 3 kg·ng/mL/mg and 6.82 kg·ng/mL/mg and 2.37 kg·ng/mL/mg, the HL_Lambda_z [4] was 3.457 h and 2.361 h and 4.842 h and the Lambda_z [4] was 0.2005 h⁻¹ and 0.2936 h⁻¹ and 0.1432 h⁻¹. For the same compound, the MRTINF_obs [4] was 313.7 min and 185.3 min and 401.2 min.
